# Reference: US20230181905A1, “Systems, Devices, and Methods for Enhancing the Neuroprotective Effects of Non-Invasive Gamma Stimulation with Pharmacological Agents” (Massachusetts Institute of Technology, priority 2021, published 2023)
# Legend:
# [1] = system: gene expression in microglia, oligodendrocytes, neurons and astrocytes; assay: Single-cell and single-nucleus RNA sequencing of brain tissue; format: in vivo, mouse; details: 5×FAD mice
# Procedure: Gene expression changes in microglia are strongly associated with AD pathogenesis. Thus, the effect of these treatments on gene expression using single-cell RNA sequencing was investigates (10× Genomics, #Chromium Next GEM Single Cell 3′ Kit v3.1, 16 rxns PN-1000268). […] The gene expression changes between treatment conditions in the microglia cluster were examined. […] Further, due to the depth of the gene expression analysis sub-clustering of microglia was performed.
# As neurons were not represented from the single-cell RNA-sequencing (FIGS. 8A-12), to study the effect of these treatments on gene expression in neurons, single nucleus RNA-sequencing was performed (10× Genomics, #Chromium Next GEM Kit v3.1, 16 rxns PN-1000268). […] The gene expression changes between treatment conditions in the interneurons cluster were examined.
# Mice were killed and the brain tissue was freshly dissected out and the single cell suspension or nuclei was prepared. Single cell RNA libraries were prepared using the Chromium Next GEM Single Cell 3′ Kit v3.1 according to the manufacturer's protocol (10× Genomics). The generated scRNA-seq libraries were sequenced using NovaSeq. Gene counts were obtained by aligning reads to the mouse genome. […]
# RNA sequencing: The animals and brain tissues were prepared, and then the single nuclei from the brain tissue was then obtained. […] The RNA-seq data was analyzed in R package. […]
# 5×FAD mice = assay: Novel object recognition test in 5×FAD mice; format: in vivo, mouse; details: chance level 50%, control 51.33±4.15
# Procedure: Given the neuroprotective effect of Plx3397+GENUS treatment, whether this treatment also impacted learning and memory was evaluated. Mice were tested in an open field (OF) and assessed for changes in anxiety and activity levels, followed by a novel object recognition (NOR) test of memory. 10-month-1d 5×FAD mice were treated with Plx3397. Following 20 days administration of Plx3397 chow, untreated- and Plx3397 treated 5×FAD mice (which continued PLX administration) were subjected to 30 days of daily GENUS. Mice were tested in OF and NOR during the last week of these treatments. […] Next, CK-p25 mice were treated for 42 days and assessed behavioral performance.
# For OF, mice were introduced into an open field box (dimensions: length=460 mm, width=460 mm and height=400 mm; TSE-Systems) and were tracked using Noldus (Ethovision) for 12 min, with time spent in the center and peripheral area of the arena measured. […] Mouse behavior was monitored for 7 min. Time spent exploring both the familiar and novel objects was recorded using Noldus and computed offline. Percentage of novelty preference index was calculated as follows: time exploring novel object (Nt) divided by total time exploring novel and familiar (Ft) objects and presented in %−{[Nt/Nt+Ft]*100}.
smiles,measurement,setting,value
"FC(F)(F)c1ccc(CNc2ccc(Cc3c[nH]c4ncc(Cl)cc34)cn2)cn1 [Plx3397, Pexidartinib]",genes related to Tyrobp-trem2-Apoe pathway in microglia,"[1]; single-cell RNA sequencing, microglia cluster",upregulated
same,abnormal synaptic transmission genes in E-neurons,"[1]; visual cortex, snRNA-seq",upregulated
same,preference for the novel object in the NOR test (novelty index),5×FAD mice,57.55±7.00%
